Key:
[1] = tested on: renal proximal tubule cells (RPTC); assay: MTT assay of RPTC proliferation; assay type: cell-based, rabbit; details: for effect of inhibitor on suramin-induced RPTC proliferation (MTT assay): 50 μM suramin 48 hr, 10 μM AG1478, 20 μM LY294002, 10 μM U0126 or 10 μM PP1
Method: Isolation and culture of renal proximal tubules: Isolation and culture of renal proximal tubules were performed as described previously (Rodeheaver et al., 1990; Nowak and […], 1995; Nowak and […], 1996). Female New Zealand White rabbits (1.5-2.5 kg) were purchased from Myrtle's Rabbitry (Thompson Station, Tenn.). RPTC were isolated using the iron oxide perfusion method and grown in 6-well tissue culture dishes under improved conditions. The culture medium was an 1:1 mixture of DMEM/Ham's F-12 (without glucose, phenol red, or sodium pyruvate) supplemented with 15 mM HEPES buffer, 2.5 mM L-glutamine, 1 μM pyridoxine HCl, 15 mM sodium bicarbonate, and 6 mM lactate. Hydrocortisone (50 μM), selenium (5 ng/ml), human transferrin (5 μg/ml) bovine insulin (10 nM) and L-ascorbic acid-2-phosphate (50 μM) were added daily to fresh culture medium. Isolated tubules were plated at 1 mg protein/well in a 6-well plate. On day 2, RPTC were incubated in the presence and absence of various pharmacological inhibitors for different time periods as indicated in the figure legends. […] MTT assay: The 3-(4,5-dimethylthiazol-2-yl)-2,5-diphenyl-tetrazolium bromide (MTT) assay was used to assess cell proliferation (Kooistra et al., 1997; […] et al., 2002). Following a 48 hr exposure to various inhibitors or diluents, MTT was added (final concentration of 0.5 mg/ml) to individual cultures for an additional 30 min. Tetrazolium was released by dimethyl sulfoxide and optical density was determined with a spectrophotometer (570 nm). Data were normalized to diluent-treated cultures.

[2] = tested on: EGF receptor; assay: Immunoblot of EGF receptor phosphorylation (Tyr1068) in RPTC; assay type: cell-based, rabbit
Method: (§1) Preparation of cell lysates and immunoblot analysis: After different treatments, RPTC were washed twice with PBS and harvested in lysis buffer (0.25 M Tris-HCl, pH 6.8, 4% SDS, 10% glycerol, 1 mg/ml bromophenol blue, and 0.5% 2-mercaptoethanol). Cells were disrupted by sonication for 15 seconds and lysates stored at −20 °C. Equal amounts of cellular protein lysate were separated on 10% polyacrylamide gels and transferred to nitrocellulose membranes. After treatment with 5% skim milk at 4 °C overnight, membranes were incubated with various antibodies for 1 hr, and then incubated with an appropriate horseradish-peroxidase conjugated secondary antibody (Amersham, Piscataway, N.J.). Bound antibodies were visualized following chemiluminescence detection on autoradiographic film.
To determine whether suramin caused EGF receptor activation, we performed immunoblot analysis using an antibody against phosphorylated tyrosine 1068 of the EGF receptor. Total EGF receptor content was measured using immunoblot analysis and an antibody that recognizes the EGF receptor independent of its phosphorylation state to control for gel loading. […] Thus, suramin induced RPTC proliferation and scattering is not through the EGF receptor.

[3] = tested on: Akt; assay: Immunoblot of Akt phosphorylation in RPTC; assay type: cell-based, rabbit; details: for effect of inhibitor on Akt phosphorylation: pretreated 1 hr with 20 μM LY294002, or 10 μM PP1, or AG1478, 50 μM suramin 30 min
Method: as §1
We evaluated whether the PI3K/Akt and/or ERK1/2 pathways are activated in RPTC in response to suramin. The activation of the PI3K and ERK1/2 pathways was measured using immunoblot analysis and antibodies that recognize phosphorylated Akt at serine 473 (a target of PI3K) and ERK1/2, respectively. Total Akt and ERK1/2 content was measured using immunoblot analysis and antibodies that recognize the Akt and ERK1/2 independent of their phosphorylation state to control for gel loading. Suramin-induced Akt phosphorylation within 10 min, reached a maximum at 30 min and was sustained through 120 min of treatment (FIG. 6A). ERK1/2 phosphorylation also was induced within 10 min and maximal at 30 min, but decreased to the control levels at 120 min.

[4] = tested on: renal proximal tubule cells (RPTC); assay: RPTC scattering, fibroblast-like morphology and lamellipodia (bright field, phalloidin staining); assay type: cell-based, rabbit; details: for effect of inhibitor on suramin-induced fibroblast-like phenotype and RPTC scattering: 50 μM suramin 24 hr, 10 μM AG1478, 20 μM LY294002, 10 μM U0126 or 10 μM PP1
Method: (§2) Isolation and culture of renal proximal tubules: Isolation and culture of renal proximal tubules were performed as described previously (Rodeheaver et al., 1990; Nowak and Schnellmann, 1995; Nowak and Schnellmann, 1996). Female New Zealand White rabbits (1.5-2.5 kg) were purchased from Myrtle's Rabbitry (Thompson Station, Tenn.). RPTC were isolated using the iron oxide perfusion method and grown in 6-well tissue culture dishes under improved conditions. The culture medium was an 1:1 mixture of DMEM/Ham's F-12 (without glucose, phenol red, or sodium pyruvate) supplemented with 15 mM HEPES buffer, 2.5 mM L-glutamine, 1 μM pyridoxine HCl, 15 mM sodium bicarbonate, and 6 mM lactate. Hydrocortisone (50 μM), selenium (5 ng/ml), human transferrin (5 μg/ml) bovine insulin (10 nM) and L-ascorbic acid-2-phosphate (50 μM) were added daily to fresh culture medium.
(§3) Isolated tubules were plated at 1 mg protein/well in a 6-well plate. On day 2, RPTC were incubated in the presence and absence of various pharmacological inhibitors for different time periods as indicated in the figure legends. For some experiments, suramin was added to RPTC on day 3 and then incubated for 24 hr in the presence or absence of various inhibitors before samples were taken.
Immunocytochemistry: After various treatments, RPTC were fixed with 10% buffered formalin, washed, permeabilized, and blocked with BSA. Fluorescein conjugated phalloidin was added and RPTC visualized by fluorescent microscopy.

[5] = tested on: renal proximal tubule cells (RPTC); assay: Cell cycle analysis by flow cytometry: number of RPTC in S-phase; assay type: cell-based, rabbit; details: for effect of inhibitor on suramin-induced RPTC proliferation (number of RPTC in S-phase): 50 μM suramin 24 hr, 20 μM LY294002, 10 μM U0126 or 10 μM PP1
Method: as §2, §3
Cell cycle analysis: Cell cycle phase was determined using flow cytometry as previously described (Zhuang et al., 2004). Cells were harvested, stained with propidium iodide and the number of cells in S-phase of cell cycle determined.

[6] = tested on: Src; assay: Immunoblot of Src phosphorylation (Tyr416, Tyr527) in RPTC; assay type: cell-based, rabbit
Method: as §1
To determine whether suramin activates Src and whether Src mediates Akt activation, we examined the effect of suramin on Src phosphorylation and the effect of PP1 on suramin-induced Akt phosphorylation. Src activation requires dephosphorylation of tyrosine 527 (Zheng et al., 2000) and phosphorylation of tyrosine 416 in the catalytic domain (Leu and Maa, 2003). Src phosphorylation at tyrosine 416 was detected in control samples. Following suramin-treatment, Src phosphorylation increased within 10 min and returned to the basal level at 60 min (FIG. 8A). […] Thus, suramin-induced RPTC proliferation and scattering is dependent on Src activity and Src is required for activation of the PI3K/Akt signaling pathway.

[7] = tested on: ERK1/2; assay: Immunoblot of ERK1/2 phosphorylation in RPTC; assay type: cell-based, rabbit
Method: as §1
We evaluated whether the PI3K/Akt and/or ERK1/2 pathways are activated in RPTC in response to suramin. The activation of the PI3K and ERK1/2 pathways was measured using immunoblot analysis and antibodies that recognize phosphorylated Akt at serine 473 (a target of PI3K) and ERK1/2, respectively. Total Akt and ERK1/2 content was measured using immunoblot analysis and antibodies that recognize the Akt and ERK1/2 independent of their phosphorylation state to control for gel loading.

[8] = tested on: mouse renal ischemic/reperfusion (I/R) acute renal failure model; assay: Mouse renal ischemic/reperfusion (I/R) acute renal failure model, serum creatinine; assay type: in vivo
Method: Experiments were designed to investigate whether suramin stimulated recovery of renal function in a mouse renal ischemic/reperfusion (I/R) acute renal failure model. Male C57BL/6 mice weighing 25-30 g were subjected to I/R injury using bilateral renal artery clamping for 26 min and then allowed to recover over time. The renal pedicles were isolated, but no clamps were applied in the sham group. Some mice subjected to I/R were treated with a single intravenous dose of suramin (0.001-10 mg/kg) or diluent 24 hr after reperfusion. Blood was collected at 24 and 48 hr after injury and serum creatinine levels measured as a marker of acute renal failure.

[9] = tested on: renal proximal tubule cells (RPTC); assay: RPTC outgrowth from plated renal proximal tubules (photographs); assay type: cell-based, rabbit; details: after 24 hr exposed for 24 hr, 50 μM suramin, 10 ng/ml EGF or suramin+EGF
Method: as §2, §3

Structure (SMILES): COc1cc2ncnc(Nc3cccc(Cl)c3)c2cc1OC [AG1478, 4-(3-chloroanilino)-6,7-dimethoxyquinazoline]
- effect of inhibitor on suramin-induced RPTC proliferation (MTT assay) [1]: did not affect suramin-induced RPTC proliferation
- effect of inhibitor on EGF-induced EGF receptor phosphorylation ([2]; pretreated with 10 μM AG1478 for 1 hr, then EGF 10 min): inhibited EGF-induced EGF receptor phosphorylation
- effect of inhibitor on Akt phosphorylation [3]: did not affect suramin-induced phosphorylation of Akt
- effect of inhibitor on EGF-induced fibroblast-like phenotype and scattering ([4]; 10 ng/ml EGF 24 hr, 10 μM AG1478): blocked EGF-induced formation of the fibroblast-like phenotype and scattering
- effect of inhibitor on suramin-induced fibroblast-like phenotype and RPTC scattering [4]: did not affect suramin-induced formation of the fibroblast-like phenotype and scattering

Structure (SMILES): O=c1cc(N2CCOCC2)oc2c(-c3ccccc3)cccc12 [LY294002, 2-(4-Morpholinyl)-8-phenyl-4H-1-benzopyran-4-one]
- effect of inhibitor on suramin-induced RPTC proliferation (MTT assay) [1]: decreased suramin-induced proliferation
- effect of inhibitor on Akt phosphorylation [3]: blocked Akt phosphorylation
- effect of inhibitor on suramin-induced fibroblast-like phenotype and RPTC scattering [4]: partially inhibited
- effect of inhibitor on suramin-induced RPTC proliferation (number of RPTC in S-phase) [5]: decreased suramin-induced proliferation

Structure (SMILES): Cc1ccc(-c2nn(C(C)(C)C)c3ncnc(N)c23)cc1 [PP1]
- effect of inhibitor on suramin-induced RPTC proliferation (MTT assay) [1]: inhibited RPTC proliferation in control and suramin-treated cells
- effect of inhibitor on suramin-induced Src phosphorylation ([6]; PP1, suramin-treated RPTC): inhibition of suramin-induced Src and Akt phosphorylation
- effect of inhibitor on Akt phosphorylation [3]: blocked suramin-induced phosphorylation of Akt
- effect of inhibitor on suramin-induced fibroblast-like phenotype and RPTC scattering [4]: blocked
- effect of inhibitor on suramin-induced RPTC proliferation (number of RPTC in S-phase) [5]: inhibited RPTC proliferation in control and suramin-treated cells

Structure (SMILES): N#CC(=C(N)Sc1ccccc1N)C(C#N)=C(N)Sc1ccccc1N [U0126, 1,4-Diamino-2,3-dicyano-1,4-bis(2-aminophenylthio)butadiene]
- effect of inhibitor on suramin-induced RPTC proliferation (MTT assay) [1]: had no effect on proliferation
- effect of inhibitor on ERK1/2 phosphorylation ([7]; pretreated with 10 μM U0126 for 1 hr, presence and absence of 50 μM suramin (30 min)): blocked ERK1/2 phosphorylation
- effect of inhibitor on suramin-induced fibroblast-like phenotype and RPTC scattering [4]: had no effect
- effect of inhibitor on suramin-induced RPTC proliferation (number of RPTC in S-phase) [5]: had no effect on proliferation

Structure (SMILES): Cc1ccc(C(=O)Nc2ccc(S(=O)(=O)O)c3cc(S(=O)(=O)O)cc(S(=O)(=O)O)c23)cc1NC(=O)c1cccc(NC(=O)Nc2cccc(C(=O)Nc3cc(C(=O)Nc4ccc(S(=O)(=O)O)c5cc(S(=O)(=O)O)cc(S(=O)(=O)O)c45)ccc3C)c2)c1 [suramin]
- increase in the number of RPTC (MTT assay) ([1]; 48 hr exposure, 50 μM suramin, versus diluent controls): approximately 40%
- EGF receptor phosphorylation (tyrosine 1068) ([2]; 50 μM suramin, 10 ng/ml EGF or both for 10 min): did not detect phosphorylated EGF receptor
- reduced phosphorylation of Src at tyrosine 527 sustained through ([6]; 50 μM suramin): ≥ 120 min
- time at which Src phosphorylation (tyrosine 416) returned to the basal level ([6]; 50 μM suramin): 60 min
- time to increase of Src phosphorylation at tyrosine 416 ([6]; 50 μM suramin): ≤ 10 min
- time to reduced phosphorylation of Src at tyrosine 527 ([6]; 50 μM suramin): ≤ 5 min
- renal function ([8]; doses of suramin greater than or equal to 0.1 mg/kg, single intravenous dose 24 hr after reperfusion): completely restored renal function
- recovery of renal function ([8]; low doses (0.1 mg/kg), given after acute renal failure is fully established): complete recovery of renal function
- serum creatinine levels ([8]; single intravenous suramin dose between 0.003 and 0.03 mg/kg 24 hr after reperfusion, I/R plus diluent approximately 2 mg/dl): approximately 1 mg/dl
- Akt phosphorylation sustained through ([3]; 50 μM suramin, 0-120 min): ≥ 120 min
- time of maximum Akt phosphorylation ([3]; 50 μM suramin, 0-120 min): 30 min
- time to induction of Akt phosphorylation ([3]; 50 μM suramin, 0-120 min): ≤ 10 min
- RPTC outgrowth [9]: stimulated RPTC outgrowth
- time at which ERK1/2 phosphorylation decreased to the control levels ([7]; 50 μM suramin, 0-120 min): 120 min
- time of maximal ERK1/2 phosphorylation ([7]; 50 μM suramin, 0-120 min): 30 min
- time to induction of ERK1/2 phosphorylation ([7]; 50 μM suramin, 0-120 min): ≤ 10 min
- formation of lamellipodia and intercellular contacts ([4]; 50 μM suramin or 10 ng/ml EGF, 24 hr, phalloidin staining): increased the formation of lamellipodia and decreased intercellular contacts
- RPTC morphology at the edge of the cell island (scattering) ([4]; 50 μM suramin, 24 hr, RPTC cultured 3 days): lost contact with their neighbors and became elongated, fibroblast-like cells
- RPTC proliferation (S-phase) ([5]; 100 μM suramin, 24 hr, compared with 50 μM): did not further increase RPTC proliferation
- RPTC in S-phase ([5]; 24 hr treatment, four days following plating, suramin 50 μM, EGF 10 ng/ml, untreated approximately 20%): 29%
- number of RPTC in S-phase ([5]; suramin concentrations lower than 50 μM, 24 hr): did not statistically increase the number of RPTC in S-phase
